We go through eight compounds from US20030083483A1, “Molecular interaction sites of vimentin RNA and methods of modulating the same” (priority 1999, published 2003).

In brackets after ≈: the same amount, converted by molar mass.

In data set [1] the test system is 27-mer model RNA sequence of the 16S A-site. In words: MASS mass spectrometry binding assay with 16S A-site 27-mer RNA. Also on record: species or system prokaryotic. The note with it: for complexes detected with the 16S A site 27mer RNA: ESI-FTICR, mixture of five aminoglycosides, 16S and 18S targets simultaneously. The protocol:
The compounds are screened for binding affinity using MASS or conventional high-throughput functional screens. The best scoring compounds from docking a 256-member library against the 16S A-site ribosomal RNA structure are shown in the table 5 below. The MASS assay was performed with the 27-mer model RNA sequence of the 16S A-site whose NMR structure has been determined. The transcription/translation assay was based on expression of a luciferase plasmid.
A preferred first step of MASS screening involves mixing the RNA target (or targets) with a combinatorial library of ligands designed to bind to a specific site on the target molecule(s). Specific noncovalent complexes formed in solution between the target(s) and any library members are transferred into the gas phase and ionized by ESI. As described herein, from the measured mass difference between the complex and the free target, the identity of the binding ligand can be determined. The dissociation constant of the complex can be determined in two ways: if a ligand with a known binding affinity for the target is available, a relative Kd can be measured by using the known ligand as an internal control and measuring the abundance of the unknown complex to the abundance of the control, alternatively, if no internal control is available, Kd's can be determined by making a series of measurements at different ligand concentrations and deriving a Kd value from the “titration” curve.
In a direct determination of solution phase dissociation constants (Kd's) by mass spectrometry, ESI-MS measurements of a solution containing a fixed concentration of RNA at different concentrations of ligand were obtained. By measuring the ratio of bound:unbound RNA at varying ligand concentrations, the Kd was determined by 1/slope of the “titration curve”. The MS derived value of 110 nM is in good agreement with previously reported literature value of 200 nM.
All mass spectrometry experiments were performed using an Apex II 70e electrospray ionization Fourier transform ion cyclotron resonance mass spectrometer (Bruker Daltonics, Billerica) employing an actively shielded 7 tesla superconducting magnet. RNA solutions were prepared in 50 mM NH4OAc (pH 7), mixed 1:1 v:v with isopropanol to aid desolvation, and infused at a rate of […] using a syringe pump. Ions were formed in a modified electrospray source (Analytica, Branford) employing an off axis, grounded electrospray probe positioned ca. 1.5 cm from the metalized terminus of the glass desolvation capillary biased at 5000 V. A counter-current flow of dry […] gas heated to 225C was employed to assist in the desolvation process. Ions were accumulated in an external ion reservoir comprised of an RF-only hexapole, a skimmer cone, and an auxiliary electrode for 1000 ms prior to transfer into the trapped ion cell for mass analysis. Each spectrum was the result of the coaddition of 16 transients comprised of […] acquired over a 90,909 kHz bandwidth resulting in a 700 ms detection interval. All aspects of pulse sequence control, data acquisition, and post acquisition processing were performed using a Bruker Daltonics datastation running XMASS version 4.0 on a Silicon Graphics (San Jose, Calif.) R5000 computer.
Mass spectrometry experiments were performed in order to detect complex formation between a library containing five aminoglycosides (Sisomicin (Sis), Tobramycin (Tob), Bekanomycin (Bek), Paromomycin (PM), and Livodomycin (LV)) and two RNA targets simultaneously. Signals from the (M-5H+)^5− charge states of free 16S and 18S RNAs are detected at m/z 1801.515 and 1868.338, respectively. The mass spectrometric assay reproduces the known solution binding properties of aminoglycosides to the 16S A site model and an 18S A site model with a neutral mass linker. Consistent with the higher binding affinity of theses aminoglycosides for the 16S A-site relative to the 18S A-site, aminoglycoside complexes are observed only with the 16S rRNA target. […]

In data set [2] the test system is TAR RNA interaction with tat peptide. In words: disruption of TAR RNA interaction with tat peptide. In kind it is binding, HIV-1.
Data set [3] deals with luciferase mRNA containing the TAR RNA structure in the 5′-UTR. In words: wheat germ lysate translation of luciferase mRNA with TAR in the 5′-UTR. The data set is classed as biochemical, HIV. The note with it: read-out: concentration reducing translation by 50%. The source says: It is believed that stabilization of mRNA structures near the 5′-cap also could be effected by specific “small” molecules, and that such binding would reduce the translational efficiency of the mRNA. To test this hypothesis, a plasmid was constructed containing the luciferase message behind a 5′-UTR containing a 27-mer RNA construct of the HIV TAR stem-loop bulge whose structure had been determined by NMR. The resulting mRNA could be expressed and capped in a wheat germ lysate translation system supplemented with T7 polymerase following addition of m^7G to the lysate. Insertion of a 9-base leader before the TAR structure (HIVluc+9) enhanced the translational efficiency, presumably by allowing the pre-initiation complex to form. The helicase activity associated with the pre-initiation complex can transiently melt out the TAR RNA structure, and the message is translated.

Another data set has as its system luciferase mRNA. The data set can be described thus: wheat germ lysate translation of luciferase mRNA. In kind it is biochemical. The note with it: mRNA without TAR structure. The source says:
It is believed that stabilization of mRNA structures near the 5′-cap also could be effected by specific “small” molecules, and that such binding would reduce the translational efficiency of the mRNA. To test this hypothesis, a plasmid was constructed containing the luciferase message behind a 5′-UTR containing a 27-mer RNA construct of the HIV TAR stem-loop bulge whose structure had been determined by NMR.

The test system of the next data set is 18S A site model. In words: ESI-FTICR mass spectrometric complex detection with 18S A-site model RNA. In kind it is binding, eukaryotic. Particulars: mixture of five aminoglycosides, 16S and 18S targets simultaneously. The protocol:
Paromomycin, lividomycin (MW=761.354 Da), sisomicin (MW=447.269 Da), tobramycin (MW=467.2591 Da), and bekanamycin (MW=483.254 Da) were obtained from Sigma (St. Louis, Mo.) and ICN (Costa Mesa, Calif.) and were dissolved to generate 10 mM stock solutions. 2′ methoxy analogs of RNA constructs representing the prokaryotic (16S) rRNA and eukaryotic (18S) rRNA A-site were synthesized in house and precipitated twice from 1 M ammonium acetate following deprotection with ammonia (pH 8.5). The mass-tagged constructs contained an 18-atom mass tag (C12H2509) attached to the 5′-terminus of the RNA oligomer through a phosphodiester linkage.
All mass spectrometry experiments were performed using an Apex II 70e electrospray ionization Fourier transform ion cyclotron resonance mass spectrometer (Bruker Daltonics, Billerica) employing an actively shielded 7 tesla superconducting magnet. […]
Mass spectrometry experiments were performed in order to detect complex formation between a library containing five aminoglycosides (Sisomicin (Sis), Tobramycin (Tob), Bekanomycin (Bek), Paromomycin (PM), and Livodomycin (LV)) and two RNA targets simultaneously. Signals from the (M-5H+)^5− charge states of free 16S and 18S RNAs are detected at m/z 1801.515 and 1868.338, respectively. […]

A further data set has as its system E. coli. The data set can be described thus: high throughput screening assay for antibacterial activity. In kind it is cell-based. The note with it: Escherichia coli; against E. coli; crude compounds, identical activity with analytically pure material; read-out: minimum inhibitory concentrations (MIC's). The source says:
This activity was verified by manual solution synthesis of analytically pure material as described in Example 6 above, which had identical activity.

For data set [4] the following is noted: general statement; cited from earlier work.
For data set [5] the following is noted: general statement; cited from earlier work. The source holds these as a separate data set.

For the compound `NC[C@H]1O[C@H](O[C@H]2[C@H](O)[C@@H](O[C@H]3O[C@H](CO)[C@@H](O)[C@H](N)[C@H]3O)[C@H](N)C[C@@H]2N)[C@H](N)C[C@@H]1O` [tobramycin], in data set [1], the “complexes detected with the 16S A site 27mer RNA” value (from here on “complexes detected”) is on record as “Weaker complexes”. Take `CNc1ccc(NCCO)c2c1C(=O)c1ccccc1C2=O` [ACD 00001199]: in data set [2], the “concentration at which binding to TAR RNA disrupts the interaction with tat peptide” value came out at 1 µM. In addition, the IC50 values entry in data set [2] (in words, assay not stated, TAR ligands) was “low”. The IC50 in data set [3] was found to be 50 µM. Also, in the data set with luciferase mRNA, the “inhibition of translation of the luciferase mRNA” value was “some inhibition of translation at very high concentrations”. Take `CN[C@@H]1[C@@H](O)[C@@H](O[C@@H]2[C@@H](O)[C@H](O[C@H]3OC(CN)=CC[C@H]3N)[C@@H](N)C[C@H]2N)OC[C@]1(C)O` [sisomycin, sisomicin]: the “complexes detected” value in data set [1] is “Weaker complexes”. In the case of `NC[C@@H]1O[C@H](O[C@H]2[C@@H](O)[C@H](O[C@@H]3[C@@H](O)[C@H](N)C[C@H](N)[C@H]3O[C@H]3O[C@H](CO)[C@@H](O)C[C@H]3N)O[C@@H]2CO)[C@H](N)[C@@H](O)[C@@H]1O[C@H]1O[C@H](CO)[C@@H](O)[C@H](O)[C@@H]1O` [lividomycin], the dissociation constant Kd in data set [1] (16S A site 27mer, ESI-MS titration, read-out: KD measured by mass spectrometry) came out at 0.028 µM. Moreover, in data set [1], the “complexes detected” value was “High affinity complexes”. Also, the “complexes with the 18S A site model” value in the data set on 18S A site model is “absence”. As for `O=C(NO)[C@@H](Cc1ccc2ccccc2c1)NS(=O)(=O)c1ccc2ccccc2c1` [Compound 5-n-ii, (2R)-3-(2-naphthyl)-2-((2-naphthylsulfonyl)Amino)Propanehydroxamic Acid], the MIC in the data set with E. coli fell in the range of 0.7 to 1.5 µM (≈ 0.294 to 0.631 µg/mL). The same measure, in the same setting: to `O=C(NO)[C@@H](Cc1ccc2ccccc2c1)NS(=O)(=O)c1ccc(Br)cc1` [Compound 5-n-vi, (2R)-2-(((4-bromophenyl)Sulfonyl)Amino)-3-(2-naphthyl)Propanehydroxamic Acid] belongs 3 to 6 µM (≈ 1.35 to 2.7 µg/mL). With `C=C(NC(=O)C(=C)NC(=O)c1csc(C2=N[C@@H]3c4csc(n4)[C@H]4NC(=O)c5csc(n5)[C@H]([C@](C)(O)[C@@H](C)O)NC(=O)[C@H]5CSC(=N5)/C(=C/C)NC(=O)[C@H]([C@@H](C)O)NC(=O)c5csc(n5)[C@]3(CC2)NC(=O)[C@H](C)NC(=O)C(=C)NC(=O)[C@H](C)NC(=O)[C@H]([C@@H](C)CC)N[C@@H]2C=Cc3c([C@H](C)O)cc(nc3[C@H]2O)C(=O)O[C@@H]4C)n1)C(N)=O` [thiostrepton], the solubility entry in data set [4] is given as “very poor”. Moreover, the toxicity result in data set [5] is “relatively high”. With `NC[C@H]1O[C@H](O[C@H]2[C@H](O)[C@@H](O[C@H]3O[C@H](CO)[C@@H](O)[C@H](N)[C@H]3O)[C@H](N)C[C@@H]2N)[C@H](N)[C@@H](O)[C@@H]1O` [bekamycin, bekanamycin], the “complexes detected” value in data set [1] is given as “Weaker complexes”.

Broadly, the Kd is the free concentration of one partner at which half of the binding sites on the other are occupied at equilibrium, for simple one-to-one binding.
